In ChEMBL document CHEMBL1201862, “PubChem BioAssay data set” (2004):
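Assay format: 96-well plates, 48-hour exposure. Abbreviation: GI50, concentration required for 50% inhibition of growth.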 Activity calls are given as the source filed them. Rule as the data show it: active = GI50 up to about 1.1 µM and inactive = higher.

Tests used:
Assay in all cases: growth of human tumour cells (NCI), 48 h
786-0 = tested on: 786-0
BT-549 = tested on: BT-549
DU-145 = tested on: DU-145
MDA-MB-231 = tested on: MDA-MB-231
MDA-MB-435 = tested on: MDA-MB-435
MDA-N = tested on: MDA-N
PC-3 = tested on: PC-3
LXFL 529 = tested on: LXFL 529

## O=C(O[C@@H](/C=C/c1ccccc1)P1(=O)N(Cc2ccccc2)[C@H]2CCCC[C@@H]2N1Cc1ccccc1)c1ccccc1
786-0
  GI50: 4.32 µM (inactive)
BT-549
  GI50: 5.96 µM (inactive)
DU-145
  GI50: 6.21 µM (inactive)
MDA-MB-231
  GI50: 2.29 µM (inactive)
MDA-MB-435
  GI50: 3.21 µM (inactive)
MDA-N
  GI50: 4.22 µM (inactive)
PC-3
  GI50: 2.43 µM (inactive)

## Nc1nc(SCCNC(=O)CCc2ccc(O)c(I)c2)nc2c1ncn2C1OC(CO)C(O)C1O (centres undefined)
LXFL 529
  GI50: > 100 µM (inactive)

## CCOC(=O)C(NC(=O)CC)(Nc1ccccc1OC)C(F)(F)F (centres undefined)
DU-145
  GI50: > 100 µM (inactive)
MDA-MB-231
  GI50: > 100 µM (inactive)
MDA-MB-435
  GI50: > 100 µM (inactive)
MDA-N
  GI50: > 100 µM (inactive)
PC-3
  GI50: > 100 µM (inactive)

## O=c1c(Cc2c(O)oc3cc(O)ccc3c2=O)c(O)oc2cc(O)ccc12
BT-549
  GI50: > 100 µM (inactive)
DU-145
  GI50: > 100 µM (inactive)
MDA-MB-231
  GI50: > 100 µM (inactive)
MDA-MB-435
  GI50: > 100 µM (inactive)
MDA-N
  GI50: > 100 µM (inactive)
PC-3
  GI50: > 100 µM (inactive)

## COc1ccc(/C=N/N=C(N)N)c(C(=O)O)c1OC
LXFL 529
  GI50: > 100 µM (inactive)

## COc1nc(Cl)c(Cl)c(Cl)n1.COc1nc(Cl)nc(Cl)c1Cl
786-0
  GI50: 14.2 µM (inactive)
BT-549
  GI50: 9.93 µM (inactive)
DU-145
  GI50: 2.35 µM (inactive)
MDA-MB-231
  GI50: 17.2 µM (inactive)
MDA-MB-435
  GI50: 2.97 µM (inactive)
PC-3
  GI50: 2.66 µM (inactive)

## N/C(=C\c1ccc(/C=C(\NC(=O)c2ccccc2)c2nc3c([nH]2)C(=O)c2ccccc2C3=O)cc1)c1nc2c([nH]1)C(=O)c1ccccc1C2=O
LXFL 529
  GI50: 10.7 µM (inactive)

## OCCNCN(CNCCO)c1nc(N(CNCCO)CNCCO)nc(N(CNCCO)CNCCO)n1
LXFL 529
  GI50: 0.04 µM (active)

## CCOC(=O)/C(C#N)=C1/SC(C(=O)N/N=C/c2ccc(OC)cc2)=C(N)N1c1ccccc1
LXFL 529
  GI50: 60.4 µM (inactive)
